Laboratory results taken from patent US11389429B2, “Use of carbamate compound for preventing, alleviating or treating myotonia” (SK BIOPHARMACEUTICALS CO., LTD., priority 2017, dated 2022).

Test system: myotonia induced by anthracene-9-carboxylic acid (9-AC) in Sprague-Dawley rats
Test: Myotonia induction model by drug (9-AC) treatment, righting reflex test
Assay type: in vivo, rat
Design: Average Righting reflex time (TRR): unit not given here
Details: for Average Righting reflex time (TRR): 9-AC given 20 minutes later
Source text: The efficacy for myotonia of the compounds of the above Formula 1 can be confirmed by the use of known models. For example, the efficacy of the compounds of the above Formula 1 may be evaluated in a myotonia model caused by anthracene-9-carboxylic acid (9-AC). Anthracene-9-carboxylic acid can cause myotonic conditions by blocking the chloride channel-1 of muscle cells. Myotonic conditions are induced by intraperitoneal injection once to experimental animals (rats), and can be evaluated by measuring the righting reflex time. Righting reflex is a reflex behavior in which the animal's body returns from an abnormal position to a normal position, and the degree of myotonia can be evaluated by measurement of righting reflex behavior due to abnormality of muscle tension/relaxation after 9-AC treatment. Specifically, the degree of spasticity is evaluated by measuring the time that it takes for the four feet of the experimental animal to land normally when the experimental animal is turned upside down and the posture is straightened (time of righting reflex, TRR).
In the experimental animal model of myotonia induction by drug (9-AC) treatment, it was reported that the time to return to normal posture after righting reflex was delayed when measuring the rat's spasticity conditions using righting reflex (Desaphy et al., 2013, Neuropharmacology, 65: 21-27).
As an experimental model, Sprague-Dawley rats (350-400 g, 10 weeks old, a total of 36 males) were used (Orient Bio Inc.). The drug anthracene-9-carboxylic acid (9-AC) used to induce myotonia is a drug that inhibits chloride channel-1 of skeletal muscle cells and induces hyperexcitation of muscle cells. The control group (30% PEG300) or test compound was intraperitoneally administered to the rat once in each dose (15, 20 mg/kg). Test compounds were diluted in 30% PEG300 solution to a final dose of 5 ml/kg. After 20 minutes of administration of control group or test compound, 0.3% NaHCO3 solution containing 6 mg/ml of 9-AC was intraperitoneally administered by 10 ml/kg. After administration of 9-AC, righting reflex tests were performed at 30 minutes and 1 hour, respectively, and the time to return to normal posture (time of righting reflex, TRR) was measured.
Statistical analysis was used for the one-way ANOVA (1-way ANOVA) and Tukey's multiple comparison test, and outliers were excluded through the ROUT outlier analysis test (Q=1%) (in the 30-minute test, excluding each one in the control group and the 20 mg/kg treatment group; in the 1-hour test, excluding one in the 20 mg/kg treatment group). The results were derived from three repeated experiments.

NC(=O)O[C@@H](Cn1ncnn1)c1ccccc1Cl [Test compound, carbamic acid (R)-1-(2-chlorophenyl)-2-tetrazol-2-yl-ethyl ester] was tested, and the “Average Righting reflex time (TRR)” value (15 mg/kg intraperitoneal, measured 30 minutes after 9-AC, n = 9) was 2.282 ± 0.304, the “Average Righting reflex time (TRR)” value (15 mg/kg intraperitoneal, measured 1 hour after 9-AC, n = 9) was 4.978 ± 0.944 and the “Average Righting reflex time (TRR)” value (20 mg/kg intraperitoneal, measured 30 minutes after 9-AC, n = 8) was 1.85 ± 0.266. For the same compound, the “Average Righting reflex time (TRR)” value (20 mg/kg intraperitoneal, measured 1 hour after 9-AC, n = 8) was 2.515 ± 0.328, the “Time to return to normal posture compared to the control group (statistical significance)” value (20 mg/kg, at both 30 minutes and 1 hour after 9-AC, P<0.05, one-way ANOVA and Tukey's test) was “significant time reduction effect” and the “Time to return to normal posture compared to the control group in righting reflex test” value (15 and 20 mg/kg, 30 minutes and 1 hour after spasticity was induced) was “decrease in time to return to normal posture”.
